One experiment addresses MMP-12 (Homo sapiens, UniProt P39900). Briefly: Fluorescence-based MMP inhibition assay, MMP-12. The settings on record: MMP-12, fluorescence based assay, average of two experiments. It is filed as biochemical.
The target in another experiment is MMP-9 (Homo sapiens, UniProt P14780). Briefly: Fluorescence-based MMP inhibition assay, MMP-9. The format is biochemical. The settings on record: inhibitor, MMP-9, fluorescence based assay, average of two experiments.

SMILES strings stand for the structures.

Sequence of MMP-12 (P39900 106-470, species assumed): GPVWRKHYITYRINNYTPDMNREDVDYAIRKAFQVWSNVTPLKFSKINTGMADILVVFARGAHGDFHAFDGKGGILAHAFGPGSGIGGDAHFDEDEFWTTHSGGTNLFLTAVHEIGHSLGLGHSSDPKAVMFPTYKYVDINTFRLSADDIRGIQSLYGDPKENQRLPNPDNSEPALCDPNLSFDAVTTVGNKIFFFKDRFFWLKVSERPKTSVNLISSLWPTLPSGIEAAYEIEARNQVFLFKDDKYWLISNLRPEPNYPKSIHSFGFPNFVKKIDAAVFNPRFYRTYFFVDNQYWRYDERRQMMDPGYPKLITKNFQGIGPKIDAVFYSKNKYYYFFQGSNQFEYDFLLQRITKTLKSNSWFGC
Sequence of MMP-9 (P14780 94-707, species assumed): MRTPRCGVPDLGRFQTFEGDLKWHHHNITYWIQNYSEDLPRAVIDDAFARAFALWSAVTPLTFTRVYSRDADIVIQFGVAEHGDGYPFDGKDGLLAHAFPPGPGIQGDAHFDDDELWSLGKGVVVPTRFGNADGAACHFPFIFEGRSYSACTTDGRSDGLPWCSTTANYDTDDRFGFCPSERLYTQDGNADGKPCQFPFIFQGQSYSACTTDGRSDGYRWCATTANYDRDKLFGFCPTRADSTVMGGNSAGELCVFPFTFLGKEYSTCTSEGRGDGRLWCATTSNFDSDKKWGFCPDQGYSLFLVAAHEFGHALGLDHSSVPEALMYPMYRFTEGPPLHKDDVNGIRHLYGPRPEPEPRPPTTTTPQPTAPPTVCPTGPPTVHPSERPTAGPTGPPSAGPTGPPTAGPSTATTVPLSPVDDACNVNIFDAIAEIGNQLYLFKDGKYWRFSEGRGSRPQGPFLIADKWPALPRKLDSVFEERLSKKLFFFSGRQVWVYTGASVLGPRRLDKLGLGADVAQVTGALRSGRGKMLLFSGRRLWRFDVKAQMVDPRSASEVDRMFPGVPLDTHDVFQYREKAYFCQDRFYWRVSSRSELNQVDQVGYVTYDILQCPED

In the case of `O=C(NCc1ccc(-c2ccccc2)cc1)c1cccc(=O)n1O` [1,2-HOPO-2], the half-inhibitory concentration (IC50) was 0.053 µM at MMP-12 and 6.1 µM against MMP-9.

One may read the IC50 as the midpoint of a concentration-inhibition curve. A higher IC50 goes with weaker potency in that assay.

The values above are taken from PMC2953536 (Angewandte Chemie (International ed. in English), 2010).
